The values that follow come from patent US8563578B2, “Antitumor properties of NO modified protease inhibitors” (Onconox APS, priority 2008, dated 2013).

Where two headings read alike, the source gives them in different places.

The subject of one series is Tumor cells. The series can be described thus: Viability recovery after drug withdrawal (CV test). It is filed as cell-based. To be noted: 18.8 μM for 24 h, drug removed, additional 24 h. The protocol:
Reduction of 3-4,5-dimethylthiazol-2-yl)-2,5-diphenyltetrazolium bromide (MTT) to formazan depends on mitochondrial activity of cultured cells, absorption of crystal violet dye correlates with the number of adherent, live cells, while the release of cytosolic lactate dehydrogenase (LDH) indicates the disruption of membrane integrity caracteristic for necrotic cells. The cells were seeded in flat-bottom 96-well plates in a final volume of 200 μl of culture medium containing different agents, and the assays were performed after 24 h incubation exactly as previously described (Mijatovic et al. 2004, Decker et al., 1998). Mitohondrial-dependent production of formazan and intensity of absorbed crystal violet by adherent cells were assessed by an automated microplate reader at 570 nm, while the pyruvate-mediated conversion of 2,4-dinitrophenylhydrazine into visible hydrazone precipitate in LDH assay was measured at 492 nm. The % of cytotoxicity as indicated by LDH release was calculated as: (E−C)/(T−C)×100, where E is the experimental absorbance of cell cultures, C is the control absorbance of cell-free culture medium, and T is the absorbance corresponding to the maximal (100%) LDH release of Triton-lysed cells.
FIG. 4. […] Results are calculated as indicated in materials and methods and presented as mean±SD from representative of three independent experiment (*p <0.05). […]

The test system of the next series is C6 cells. Nature of the series: Differentiation markers by cell-based ELISA, C6. Also noted: species or system rat. To be noted: 18.8 μM, 24 h. The text has this: A slightly modified method for cell-based ELISA (cELISA) by Versteeg (Versteed et al., 2000) was used to measure the expression of galactocerebroside, glial fibrilar acidic protein (GFAP), myelin basic protein (MBP), cyclin D3, p53 and p-AKT. Briefly, at the end of cultivation period cells were fixed in 4% paraformaldehyde, endogenous peroxydase was quenched with 1% H2O2 in PBS containing 0.1% Triton X-100 (PBST), and unspecific binding of antibodies blocked with PBST solution containing 10% FCS. Primary mouse monoclonal antibodies specific for rat/mouse p-Akt (1:200; Santa Cruz Biotechnology, Santa Cruz, Calif.), GFAP (1:200, BioYeda, Israel.), galactocerebroside (1:100; Boehringer Mannheim, Mannheim, Germany), MBP (1:100, Boehringer Mannheim, Mannheim, Germany), cyclin D3 (1:750, Santa Cruz Biotechnology, Santa Cruz, Calif.) and p53 (1:250, Santa Cruz Biotechnology, Santa Cruz, Calif.) were applied in PBST supplemented with 2% bovine serum albumin (PBSTB), followed by secondary peroxidase-conjugated goat anti-mouse IgG (1:2500 in PBSTB; GE Healthcare UK) for anti-GFAP and galactocerebroside or anti-rabbit IgG (1:2500, Healthcare UK) for anti-p-Akt, anti-cyclin D3 and anti-p53. All incubations were performed at 37° C. for 1 h. The absorbance at 450 nm was measured in an automated microplate reader 15 min after incubation with peroxydase substrate TMB and subsequently to addition of 0.1 M HCl. To facilitate comparison between treatments, the obtained absorbances were corrected for the cell number that was determined by crystal violet staining, as described in the original protocol. The results are presented as relative expression in comparison with the control value.
FIG. 5. […] Cell morphology was assessed by light microscopy (A). Markers of cell differentiation of C6 and B16 cells, galactocerebroside, GFAP and MBP were determined by cELISA and melanin and tyrosinase activity were determined as described in material and methods (B). Cyclin D3 and p53 expression were evaluated by cELISA (C, upper panels), immunocytochemistry (C, middle panel) and Western blot (C, lower panel). The results were presented as mean±SD from three independent experiments. *p<0.05, refers to untreated cultures.
Background: In an ELISA, binding on a coated surface is turned into a signal by an enzyme label.

A further series deals with B16 cells. The series can be described thus: Cell cycle / apoptosis by propidium iodide flow cytometry, B16. Format: cell-based, mouse. To be noted: 18.8 μM, 24 h. How it is done:
Apoptotic cell death was assessed by flow cytometry analysis of DNA fragmentation in cells stained with DNA-binding dye propidium iodide (PI). Following a 24 h incubation in 6-well plate, cells (2×10^5/well) were detached with trypsin, washed and fixed in 70% ethanol at 4° C. for 30 min. After washing in PBS, cells were resuspended in PBS containing 1 mg/ml RNase and propidium iodide (40 μg/ml) and kept at 37° C. in the dark for 30 min. Red fluorescence was analyzed with FACSCalibur flow cytometer (BD, Heidelberg, Germany) and distribution of cells among cell cycle phases was determined with Cell Quest Pro software (BD). Hypodiploid cells in sub-G0/G1 compartment were considered apoptotic.
FIG. 4. […] Results are calculated as indicated in materials and methods and presented as mean±SD from representative of three independent experiment (*p <0.05). […] After 24 h of cultivation without or with drugs, cells were stained with AO orange (B) or PI (C) and analyzed by flow cytometry. The data are presented as mean±SD from three independent experiments. *p<0.05, refers to untreated cultures. […] Cells were incubated with 18.8 μM of Sag or Saq-NO2 for 24 h. After that, the drugs were either removed or not from the cells and incubated for additional 24 h. Cell viability was determined by CV test after 24 and 48 h of incubation (right panels). The data are presented as mean±SD from three independent experiments. *p<0.05, refers to untreated cultures.

In another series the test system is CD1 mice. The settings on record: CD1, mouse, in vivo, ip. The protocol: To define the acute toxicity of Sag and Sag NO2, the test compound was administered i.p. to CD1 mice at the single doses of 250, 500, 1000 and 1500 mg/Kg. Control groups were treated i.p. with vehicle (pure DMSO; 100 μl/mouse). Each group consisted of 10 mice. Mortality was evaluated every hour for the first 4 hours and then every 10 hours until 14 days after dosing.

`CC(C)(C)NC(=O)[C@@H]1C[C@@H]2CCCC[C@@H]2CN1C[C@@H](O[N+](=O)[O-])[C@H](Cc1ccccc1)NC(=O)[C@H](CC(N)=O)NC(=O)c1ccc2ccccc2n1` [Saq-NO2, nitric ester of Saquinavir]: the “recovery of viability after drug withdrawal” value in the series on Tumor cells is listed as “very mild recovering”. In the series with C6 cells, the “expression of GFAP” value is “decreased or unchanged” and the expression of galactocerebroside result is recorded as “strongly up regulated”. Besides, in the series on B16 cells, the apoptosis result was “statistically significant apoptosis” and the cell cycle distribution entry is reported as “accumulation of cells in G2/M phase”.
Take `CC(C)(C)NC(=O)[C@@H]1C[C@@H]2CCCC[C@@H]2CN1C[C@@H](O)[C@H](Cc1ccccc1)NC(=O)[C@H](CC(N)=O)NC(=O)c1ccc2ccccc2n1` [Saq, Saquinavir, reference compound]: the “recovery of viability after drug withdrawal” value with Tumor cells is “mainly restored the viability”. In the series on C6 cells, the “expression of GFAP” value is recorded as “decreased or unchanged” and the expression of galactocerebroside result is “strongly up regulated”. For the same molecule, the cell cycle distribution result in the series with B16 cells was “did not show considerably different distribution from control”. For the same molecule, the lethality with CD1 mice (500 mg/kg, 24 h) turned out to be 20%. For the same molecule, in the series with CD1 mice (1000 mg/kg, 14 days), the lethality came to 30%. Moreover, in the series on CD1 mice (14 days), the lethality is reported as 100%, the “time of death (mean±SD)” value amounted to 65 ± 58 h and the “time of death (range)” value was in the range of 18 to 144 h.
